Results taken from patent US7704995B2 (Exelixis, Inc., priority 2003, dated 2010).
Read-outs that look alike come from different tables or passages of the source.

Molecular target: T1, Chk1 (Homo sapiens, UniProt O14757)
T1 construct: purchased Upstate Biotechnology
T1 sequence (O14757 1-476): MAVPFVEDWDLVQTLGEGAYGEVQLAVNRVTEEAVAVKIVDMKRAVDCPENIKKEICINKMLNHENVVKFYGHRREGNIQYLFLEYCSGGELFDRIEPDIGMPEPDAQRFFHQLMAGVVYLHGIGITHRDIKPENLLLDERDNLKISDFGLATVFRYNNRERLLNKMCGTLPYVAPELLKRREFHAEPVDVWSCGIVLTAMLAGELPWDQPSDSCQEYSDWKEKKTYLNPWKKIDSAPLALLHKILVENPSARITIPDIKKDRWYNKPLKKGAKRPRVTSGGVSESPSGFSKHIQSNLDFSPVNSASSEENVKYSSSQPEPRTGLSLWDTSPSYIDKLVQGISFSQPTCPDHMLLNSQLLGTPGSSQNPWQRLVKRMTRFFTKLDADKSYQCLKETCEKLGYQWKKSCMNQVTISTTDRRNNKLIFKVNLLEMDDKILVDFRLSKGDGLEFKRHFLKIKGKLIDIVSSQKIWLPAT
Test: Chk1 kinase assay: incorporation of γ-33P ATP into immobilized myelin basic protein
Format: biochemical
Conditions: read-out: Chk1 IC50
In short: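 MBP coated on plates (20 μg/ml) was phosphorylated by Chk1 (10 nM) or Chk2 (20 nM) with γ-33P ATP plus 10 μM (Chk1) or 30 μM (Chk2) unlabeled ATP, 1 h at room temperature, 1% DMSO. Bound radioactivity was counted by scintillation after washing; IC50 or Ki derived from fitted rate data.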

[1] = Table 11, Chk1 only, class symbols A-D

IC50 (Table 11, Chk1 only) [nM]	SMILES	further results
< 50	Nc1ncc(-c2cccc(C(=O)NCc3ccc(OC(F)(F)F)cc3)c2)nc1C(=O)N[C@H]1CCNC1 [Example 744, 3-amino-N-[(3S)-pyrrolidin-3-yl]-6-(3-{[({4-[(trifluoromethyl)oxy]phenyl}methyl)amino]carbonyl}phenyl)pyrazine-2-carboxamide]	
50 to 1000	CN1CC[C@H](NC(=O)c2nc(-c3cccc(C(=O)N[C@H]4CCc5ccccc54)c3)cnc2N)C1 [Example 804, 3-amino-6-(3-{[(1S)-2,3-dihydro-1H-inden-1-ylamino]carbonyl}phenyl)-N-[(3S)-1-methylpyrrolidin-3-yl]pyrazine-2-carboxamide]	
50 to 1000	CN1CCCC(c2n[nH]c(-c3nc(-c4cccc(CN[C@H]5CCc6ccccc65)c4)cnc3N)n2)C1 (stereo partly drawn) [Example 737, 5-(3-{[(1S)-2,3-dihydro-1H-inden-1-ylamino]methyl}phenyl)-3-[3-(1-methylpiperidin-3-yl)-1H-1,2,4-triazol-5-yl]pyrazin-2-amine]	
< 50	Nc1ncc(-c2cccc(C(=O)N[C@@H]3c4ccccc4C[C@@H]3O)c2)nc1C(=O)NC[C@H]1CCNC1 [Example 787, 3-amino-6-[3-({[(1R,2S)-2-hydroxy-2,3-dihydro-1H-inden-1-yl]amino}carbonyl)phenyl]-N-[(3S)-pyrrolidin-3-ylmethyl]pyrazine-2-carboxamide]	

Continued, molecule first:

SMILES	IC50 (Table 11, Chk1 only) [nM]	further results
CNC(=O)c1nc(-c2cccc(C(=O)NCC3CCNC3)c2)cnc1N (centres unmarked) [Example 366, 3-amino-N-methyl-6-(3-{[(pyrrolidin-3-ylmethyl)amino]carbonyl}phenyl)pyrazine-2-carboxamide]		IC50: 50 to 1000 nM
CNC(=O)c1nc(-c2cccc(C(=O)N[C@@H]3CCC[C@H]3OCc3ccccc3)c2)cnc1N [Example 163, 3-amino-N-methyl-6-{3-[({(1R,2R)-2-[(phenylmethyl)oxy]cyclopentyl}amino)carbonyl]phenyl}pyrazine-2-carboxamide]		IC50: 1000 to 10000 nM
CN1CCN(c2ccc(CNC(=O)c3cccc(-c4cnc(N)c(C(=O)N[C@H]5CCCNC5)n4)c3)cc2)CC1 [Example 924, 3-amino-6-{3-[({[4-(4-methylpiperazin-1-yl)phenyl]methyl}amino)carbonyl]phenyl}-N-[(3S)-piperidin-3-yl]pyrazine-2-carboxamide]		IC50 [1]: < 50 nM
CC(=O)NCCNC(=O)c1nc(-c2cccc(C(=O)NCc3ccccc3)c2)cnc1N [Example 661, N-[2-(acetylamino)ethyl]-3-amino-6-(3-{[(phenylmethyl)amino]carbonyl}phenyl)pyrazine-2-carboxamide]	1000 to 10000	
Nc1ncc(-c2cccc(C(=O)NCc3ccccc3F)c2)nc1-c1nnc([C@H]2CCCNC2)[nH]1 [Example 834, 3-(5-amino-6-{5-[(3S)-piperidin-3-yl]-4H-1,2,4-triazol-3-yl}pyrazin-2-yl)-N-[(2-fluorophenyl)methyl]benzamide]		IC50 [1]: < 50 nM
Nc1ncc(-c2cccc(CNS(=O)(=O)c3ccc4c(c3)OCCCO4)c2)nc1C(=O)N[C@H]1CCCNC1 [Example 906, 3-amino-6-(3-{[(3,4-dihydro-2H-1,5-benzodioxepin-7-ylsulfonyl)amino]methyl}phenyl)-N-[(3S)-piperidin-3-yl]pyrazine-2-carboxamide]		IC50 [1]: < 50 nM
CNC(=O)c1nc(-c2cccc(CNC3Cc4cccc(F)c4C3)c2)cnc1N (centres unmarked) [Example 466, 3-amino-6-(3-{[(4-fluoro-2,3-dihydro-1H-inden-2-yl)amino]methyl}phenyl)-N-methylpyrazine-2-carboxamide]	< 50	
Nc1ncc(-c2cccc(C(=O)NCc3ccccc3)c2)nc1C(=O)N1CCCC(C(=O)O)C1 (centres unmarked) [Example 614, 1-{[3-amino-6-(3-{[(phenylmethyl)amino]carbonyl}phenyl)pyrazin-2-yl]carbonyl}piperidine-3-carboxylic]	≥ 10000	
Nc1ncc(-c2cccc(C(=O)NC[C@H]3CCCN3)c2)nc1C(=O)N[C@H]1CCCNC1 [Example 927, 3-amino-N-[(3S)-piperidin-3-yl]-6-[3-({[(2R)-pyrrolidin-2-ylmethyl]amino}carbonyl)phenyl]pyrazine-2-carboxamide]		IC50 [1]: < 50 nM
CN(C)c1ccc(C(=O)c2nc(-c3cccc(C(=O)NCc4ccccc4)c3)cnc2N)cc1 [Example 589, 3-(5-amino-6-{[4-(dimethylamino)phenyl]carbonyl}pyrazin-2-yl)-N-(phenylmethyl)benzamide]	≥ 10000	
Nc1ncc(-c2cccc(C(=O)NCc3ccccc3)c2)nc1/C=N/Nc1ccccn1 [Example 678, 3-{5-amino-6-[(E)-(pyridin-2-ylhydrazono)methyl]pyrazin-2-yl}-N-(phenylmethyl)benzamide]	≥ 10000	
CNC(=O)c1nc(-c2ccc3ccnc(NCc4ccccc4)c3c2)cnc1N [Example 516, 3-amino-N-methyl-6-{1-[(phenylmethyl)amino]isoquinolin-7-yl}pyrazine-2-carboxamide]	1000 to 10000	
Nc1ncc(-c2cccc(C(=O)NCc3ccccc3)c2)nc1C(=O)NCCNC(=O)c1ccncc1 [Example 658, 3-amino-6-(3-{[(phenylmethyl)amino]carbonyl}phenyl)-N-{2-[(pyridin-4-ylcarbonyl)amino]ethyl}pyrazine-2-carboxamide]	1000 to 10000	
Nc1ncc(-c2cccc(C(=O)NCc3ccc(Cl)c(Cl)c3)c2)nc1C(=O)N[C@H]1CCCNC1 [Example 985, 3-amino-6-[3-({[(3,4-dichlorophenyl)methyl]amino}carbonyl)phenyl]-N-[(3S)-piperidin-3-yl]pyrazine-2-carboxamide]		IC50 [1]: < 50 nM
CC(C)(C)OC(=O)N1CCC(CNC(=O)c2nc(-c3cccc(C(=O)NCc4ccccc4)c3)cnc2N)CC1 [Example 563, 1,1-dimethylethyl 4-[({[3-amino-6-(3-{[(phenylmethyl)amino]carbonyl}phenyl)pyrazin-2-yl]carbonyl}amino)methyl]piperidine-1-carboxylate]	≥ 10000	
Nc1nccc(-c2nc(-c3cccc(C(=O)NCc4ccccc4)c3)cnc2N)n1 [Example 608, 3-[5-amino-6-(2-aminopyrimidin-4-yl)pyrazin-2-yl]-N-(phenylmethyl)benzamide]	1000 to 10000	
Nc1ncc(-c2cccc(C(=O)N[C@@H]3CCNC3)c2)nc1C(=O)N[C@H]1CCCNC1 [Example 876, 3-amino-N-[(3S)-piperidin-3-yl]-6-(3-{[(3R)-pyrrolidin-3-ylamino]carbonyl}phenyl)pyrazine-2-carboxamide]		IC50 [1]: < 50 nM
CNC(=O)c1nc(-c2cccc(CNC3CCc4cc(O)ccc43)c2)cnc1N (centres unmarked) [Example 513, 3-amino-6-(3-{[(5-hydroxy-2,3-dihydro-1H-inden-1-yl)amino]methyl}phenyl)-N-methylpyrazine-2-carboxamide]	50 to 1000	
CNC(=O)c1nc(-c2cccc(CNC3Cc4ccccc4C3)c2)cnc1N [Example 415, 3-amino-6-{3-[(2,3-dihydro-1H-inden-2-ylamino)methyl]phenyl}-N-methylpyrazine-2-carboxamide]		IC50: < 50 nM
Nc1ncc(-c2cccc(C(=O)NCc3ccccc3)c2)nc1C(=O)NCCNS(=O)(=O)c1ccccn1 [Example 665, 3-amino-6-(3-{[(phenylmethyl)amino]carbonyl}phenyl)-N-{2-[(pyridin-2-ylsulfonyl)amino]ethyl}pyrazine-2-carboxamide]	≥ 10000	
CNC(=O)c1nc(-c2cccc(CNC3CCc4ccc(-c5cccs5)cc43)c2)cnc1N (centres unmarked) [Example 495, 3-amino-N-methyl-6-[3-({[6-(2-thienyl)-2,3-dihydro-1H-inden-1-yl]amino}methyl)phenyl]pyrazine-2-carboxamide]	50 to 1000	
CNC(=O)c1nc(-c2cccc(C(=O)Nc3ccc(C)cc3)c2)cnc1N [Example 221, 3-amino-N-methyl-6-(3-{[(4-methylphenyl)amino]carbonyl}phenyl)pyrazine-2-carboxamide]		IC50: 1000 to 10000 nM
C/C(=N\Nc1nc2ccccc2s1)c1nc(-c2cccc(C(=O)NCc3ccccc3)c2)cnc1N [Example 601, 3-{5-amino-6-[(1E)-N-1,3-benzothiazol-2-ylethanehydrazonoyl]pyrazin-2-yl}-N-(phenylmethyl)benzamide]	≥ 10000	
COC(=O)c1cccc(-c2cnc(N)c(C(=O)NC3CC3)n2)c1 [Example 241, methyl 3-{5-amino-6-[(cyclopropylamino)carbonyl]pyrazin-2-yl}benzoate]		IC50: ≥ 10000 nM
Nc1ncc(-c2cccc(CNS(=O)(=O)c3cccs3)c2)nc1C(=O)N[C@H]1CCCNC1 [Example 953, 3-amino-N-[(3S)-piperidin-3-yl]-6-(3-{[(2-thienylsulfonyl)amino]methyl}phenyl)pyrazine-2-carboxamide]		IC50 [1]: < 50 nM
Nc1ncc(-c2cccc(C(=O)NCc3ccc4c(c3)OCCO4)c2)nc1C(=O)N[C@H]1CCCCNC1 [Example 1020, 3-amino-N-[(3S)-azepan-3-yl]-6-(3-{[(2,3-dihydro-1,4-benzodioxin-6-ylmethyl)amino]carbonyl}phenyl)pyrazine-2-carboxamide]		IC50 [1]: < 50 nM
CNC(=O)c1nc(-c2cccc(C(=O)NCc3cccc(Cl)c3F)c2)cnc1N [Example 300, 3-amino-6-[3-({[(3-chloro-2-fluorophenyl)methyl]amino}carbonyl)phenyl]-N-methylpyrazine-2-carboxamide]		IC50: 50 to 1000 nM
Nc1ncc(-c2cccc(CNC(=O)Nc3ccc(Br)cc3)c2)nc1C(=O)N[C@H]1CCCNC1 [Example 895]		IC50 [1]: < 50 nM
